Reference: patent US10143747B2, “Breast cancer therapeutics” (IMBA—INSTITUT FÜR MOLEKULARE BIOTECHNOLOGIE GMBH, priority 2010, dated 2018)

Columns and labels:
RANKL = RANKL protein in mammary gland / isolated mammary epithelial cells (immunostaining, Western blot) after MPA implantation; type: in vivo, mouse
Description: a,b, Induction of RANKL expression by the progesterone-derivative MPA. Nulliparous wild type females were s.c. implanted with slow-release MPA pellets or treated with surgery sham. a, RANKL mRNA was determined in purified mammary epithelial cells by qRT-PCR three days after implantation. Data are shown as fold change compared to sham treatment (+/−sem) (n=3). b, In situ […] immunostaining of progesterone receptor (PR, red) and RANKL (green) in mammary epithelial cells after 3d MPA treatment. c, Induction of soluble RANKL protein assayed on isolated mammary gland epithelial cells from control, but not in prolactin receptor mutant (PRL-R KO) females on day 3 after s.c. MPA implantation. Mammary glands from sham operated control litter-mates and PRL-R KO females are shown as controls. d, Epithelial proliferation in mammary glands of control littermates and RANK^Δmam females 3 days after sham treatment and MPA implantation. Proliferation was determined by in situ Ki67 immunostaining. e,f, Marked increase of the stem cell-enriched CD24^+CD49^high population (MaSC) in MPA-treated mammary glands in control but not in RANK^Δmam mammary glands. e, Representative FACS profiles showing CD24 and CD49 expression of lineage negative (CD31^− (endothelial cells) CD45^− (hematopoietic cells) […] (erythroid cells)) of mammary MaSCs from MPA- or sham-treated 8-week old virgin females. f, Quantification of MaSC-enriched CD24^+CD49^high population from mammary glands of MPA- or sham-treated virgin RANK^Δmam and littermate control females. For all MaSCs experiments mice were treated with MPA for 3 days. n=4 per group+/−sem. *P<0.05; ***P<0.001 (Student's t-test).
a-d, Induction of RANKL expression by the progesterone-derivative MPA. Nulliparous wild type females were s.c. implanted with slow-release MPA pellets or treated with surgery sham. a, Expression of transmembrane (tm) and soluble (s) RANKL protein was assayed on isolated mammary gland epithelial cells by Western blot 3 and 6 days after MPA pellet implantation or sham surgery. β-actin is shown as a loading control. Recombinant murine sRANKL and recombinant human tmRANKL protein are shown for molecular size comparison in the right panels. […] Numbers indicate amino acid residues. c, Expression of total (t) RANKL, RANKL1, RANKL2, and RANKL3 mRNA in purified mammary epithelial cells after three days MPA treatment. β-actin is shown as a control. d, Representative agarose gel of RT-PCR products as in c. e, mRNA expression of various proteases known to shed RANKL from the surface of cells. mRNA was determined in purified mammary epithelial cells by qRT-PCR three days after MPA implantation. […]

[1] = system: human SKBR3 breast cancer cells; experiment: Soft-Agar Colony Formation Assay (anchorage-independent growth); type: cell-based; details: RANKL 1 μg/ml
Description: a, Western blotting for phosphorylated (P) IKKα, total IKKα, phosphorylated (P) p65 NFκB, total p65 NFκB, phosphorylated (P) IκBα, and total IκBα in isolated primary mouse mammary gland epithelial cells (MECs) in response to RANKL stimulation (1 μg/ml). β-actin is shown as loading control. b, Western blotting for IKKα, IKKβ, IKKγ, phosphorylated (P) p65 NFκB, total p65 NFκB, phosphorylated (P) IκBα, and total IκBα in pooled late stage mammary adenocarconimas (n=4 for each lane) that developed in control, RANK^Δmam and IKKΔ^Δmam females. β-actin is shown as loading control c, Expression of RANK, CyclinD1, and p21 mRNA in late stage mammary adenocacinomas that developed in control, RANK^Δmam, and IKKα^Δmam females. Expression was determined by qRT-PCR. Data are mean values+/−sem. n=4 per group. d, Soft-Agar Colony Formation Assay. Growth of human SKBR3 breast cancer cells in soft agar in response to stimulation with RANKL (1 μg/ml) or EGF (100 ng/ml). Anchorage-independent, macroscopic colonies formed after 18 days in culture with RANKL, which was prevented by the decoy receptor OPG (1 μg/ml). […] Apoptosis was detected by immunostaining for active Caspase 3. f, Apoptotic nuclei of epithelial cells (arrows) are shown for representative mammary gland sections. Magnifications×40. g, Quantification of mammary epithelial apoptosis. A minimum of 5000 nuclei was counted for each mouse. […]

Molecule | 19 kDa soluble form of RANKL, Western blotting of isolated mammary epithelial cells (RANKL; 3 and 6 days after MPA pellet implantation) | RANKL protein in the mammary gland, immunohistochemistry (RANKL; 3 d MPA treatment) | RANKL protein production (RANKL; female control mice, day 3 after s.c. MPA implantation) | RANKL protein induction (RANKL; prolactin receptor mutants (PRL-R KO), day 3 after s.c. MPA implantation) | growth of SKBR3 cells in soft agar [1]
CC(=O)O[C@]1(C(C)=O)CC[C@H]2[C@@H]3C[C@H](C)C4=CC(=O)CC[C@]4(C)[C@H]3CC[C@@]21C [MPA, medroxyprogesterone acetate] | induction of the 19 kDa soluble form of RANKL | induction of RANKL protein in the mammary gland | triggers substantial production of RANKL protein | failed to detect RANKL induction | –
RANKL: recombinant RANKL protein, ligand of RANK, used as stimulus (1 μg/ml or 1 μg i.p.) (protein, UniProt O35235 139-316, looked up) Tumor necrosis factor ligand …: FSGAPAMMEGSWLDVAQRGKPEAQPFAHLTINAASIPSGSHKVTLSSWYHDRGWAKISNMTLSNGKLRVNQDGFYYLYANICFRHHETSGSVPTDYLQLMVYVVKTSIKIPSSHNLMKGGSTKNWSGNSEFHFYSINVGGFFKLRAGEEISIQVSNPSLLDPDQDATYFGAFKVQDID | – | – | – | – | induced growth of SKBR3 cells in soft agar
